What all share (assay): relative viability (nuclei count vs DMSO), 5 days (fraction); higher = more cells survive
Compound in the test “CUDC-101 + Crizotinib”: C#Cc1cccc(Nc2ncnc3cc(OC)c(OCCCCCCC(=O)NO)cc23)c1 [CUDC-101] + C[C@@H](Oc1cc(-c2cnn(C3CCNCC3)c2)cnc1N)c1c(Cl)ccc(F)c1Cl [Crizotinib] (partner 1 µM)
Put shortly:
(§1)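 Lung cancer cell lines in 1536-well plates were dosed by pin tool the day after seeding, either with one drug alone or with a fixed anchor-drug dose plus five library-drug doses (not always all listed) in √10 steps. After 5 days, cells were fixed and their nuclei stained in one step (final 0.05% Triton X-100, 1% formaldehyde, 1 ug/ml Hoechst), then counted on 4× images. Relative viability is the nuclei count in treated wells divided by that in vehicle wells. Values are medians of duplicate plates.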

Compound in the test “NVP-TAE684 + Foretinib”: COc1cc(N2CCC(N3CCN(C)CC3)CC2)ccc1Nc1ncc(Cl)c(Nc2ccccc2S(=O)(=O)C(C)C)n1 [NVP-TAE684] + COc1cc2c(Oc3ccc(NC(=O)C4(C(=O)Nc5ccc(F)cc5)CC4)cc3F)ccnc2cc1OCCCN1CCOCC1 [Foretinib] (partner 0.25 µM)
Put shortly:
as §1

Compound in the test “NVP-TAE684 + Pemetrexed”: COc1cc(N2CCC(N3CCN(C)CC3)CC2)ccc1Nc1ncc(Cl)c(Nc2ccccc2S(=O)(=O)C(C)C)n1 [NVP-TAE684] + Nc1nc2[nH]cc(CCc3ccc(C(=O)N[C@@H](CCC(=O)O)C(=O)O)cc3)c2c(=O)[nH]1 [Pemetrexed] (partner 0.2 µM)
Put shortly: as §1

Compound in the test “NVP-TAE684 + Decitabine”: COc1cc(N2CCC(N3CCN(C)CC3)CC2)ccc1Nc1ncc(Cl)c(Nc2ccccc2S(=O)(=O)C(C)C)n1 [NVP-TAE684] + Nc1ncn([C@H]2C[C@H](O)[C@@H](CO)O2)c(=O)n1 [Decitabine] (partner 2 µM)
The procedure, abridged:
as §1

Compound in the test “Vandetanib + Lapatinib”: COc1cc2/c(=N/c3ccc(Br)cc3F)nc[nH]c2cc1OCC1CCN(C)CC1 [Vandetanib] + CS(=O)(=O)CCNCc1ccc(-c2ccc3ncnc(Nc4ccc(OCc5cccc(F)c5)c(Cl)c4)c3c2)o1 [Lapatinib] (partner 2 µM)
Put shortly: as §1

In the case of NCI-H838, the relative viability in the test with CUDC-101 + Crizotinib (first compound 0.01 µM) turned out to be 0.87; in the test with CUDC-101 + Crizotinib (first compound 0.03162 µM), 0.74; with CUDC-101 + Crizotinib (first compound 0.1 µM) it was 0.832; with CUDC-101 + Crizotinib (first compound 0.3162 µM), 0.669; with CUDC-101 + Crizotinib (first compound 1 µM) it was 0.382; with NVP-TAE684 + Foretinib (first compound 0.2 µM), 0.971. In addition, the relative viability was 1.05 with NVP-TAE684 + Foretinib (first compound 0.6325 µM); 0.628 with NVP-TAE684 + Foretinib (first compound 2 µM); 0.25 in the test with NVP-TAE684 + Pemetrexed (first compound 0.2 µM); 0.239 with NVP-TAE684 + Pemetrexed (first compound 0.6325 µM); 0.17 in the test with NVP-TAE684 + Pemetrexed (first compound 2 µM); 0.456 with NVP-TAE684 + Decitabine (first compound 0.2 µM). In addition, the relative viability worked out at 0.464 with NVP-TAE684 + Decitabine (first compound 0.6325 µM); 0.314 with NVP-TAE684 + Decitabine (first compound 2 µM); 0.937 with Vandetanib + Lapatinib (first compound 0.02 µM); 0.953 with Vandetanib + Lapatinib (first compound 0.06325 µM); 0.958 with Vandetanib + Lapatinib (first compound 0.2 µM); 0.958 with Vandetanib + Lapatinib (first compound 0.6325 µM). The relative viability with Vandetanib + Lapatinib (first compound 2 µM) amounted to 0.99.

For NCI-H2009, the relative viability with CUDC-101 + Crizotinib (first compound 0.01 µM) amounted to 1.02; with CUDC-101 + Crizotinib (first compound 0.03162 µM), 0.992; in the test with CUDC-101 + Crizotinib (first compound 0.1 µM), 1.11; with CUDC-101 + Crizotinib (first compound 0.3162 µM), 0.991; in the test with CUDC-101 + Crizotinib (first compound 1 µM), 1.03; with NVP-TAE684 + Foretinib (first compound 0.2 µM), 1.07. The relative viability in the test with NVP-TAE684 + Foretinib (first compound 0.6325 µM) was 1.14; with NVP-TAE684 + Foretinib (first compound 2 µM) it was 1.09; with NVP-TAE684 + Pemetrexed (first compound 0.2 µM), 1.06; in the test with NVP-TAE684 + Pemetrexed (first compound 0.6325 µM), 1.01; with NVP-TAE684 + Pemetrexed (first compound 2 µM), 0.894; with NVP-TAE684 + Decitabine (first compound 0.2 µM), 0.372. Further, the relative viability worked out at 0.34 with NVP-TAE684 + Decitabine (first compound 0.6325 µM); 0.345 with NVP-TAE684 + Decitabine (first compound 2 µM); 0.848 in the test with Vandetanib + Lapatinib (first compound 0.02 µM); 0.887 in the test with Vandetanib + Lapatinib (first compound 0.06325 µM); 1.04 with Vandetanib + Lapatinib (first compound 0.2 µM); 0.981 with Vandetanib + Lapatinib (first compound 0.6325 µM). For the same cell line, the relative viability with Vandetanib + Lapatinib (first compound 2 µM) was 1.06.

SK-MES-1: the relative viability amounted to 1.06 with CUDC-101 + Crizotinib (first compound 0.01 µM); 1 with CUDC-101 + Crizotinib (first compound 0.03162 µM); 1.02 with CUDC-101 + Crizotinib (first compound 0.1 µM); 1.04 with CUDC-101 + Crizotinib (first compound 0.3162 µM); 0.945 with CUDC-101 + Crizotinib (first compound 1 µM); 0.597 in the test with NVP-TAE684 + Foretinib (first compound 0.2 µM). Besides, the relative viability in the test with NVP-TAE684 + Foretinib (first compound 0.6325 µM) turned out to be 1.12; with NVP-TAE684 + Foretinib (first compound 2 µM) it was 0.774; with NVP-TAE684 + Pemetrexed (first compound 0.2 µM), 0.999; with NVP-TAE684 + Pemetrexed (first compound 0.6325 µM), 0.855; with NVP-TAE684 + Pemetrexed (first compound 2 µM), 0.686; in the test with NVP-TAE684 + Decitabine (first compound 0.2 µM), 0.41. Also, the relative viability with NVP-TAE684 + Decitabine (first compound 0.6325 µM) is 0.335; with NVP-TAE684 + Decitabine (first compound 2 µM), 0.305; with Vandetanib + Lapatinib (first compound 0.02 µM) it was 0.474; in the test with Vandetanib + Lapatinib (first compound 0.06325 µM), 0.499; with Vandetanib + Lapatinib (first compound 0.2 µM), 0.489; in the test with Vandetanib + Lapatinib (first compound 0.6325 µM) it was 0.471. The relative viability with Vandetanib + Lapatinib (first compound 2 µM) was determined as 0.459.

Regarding H3255, the relative viability was 0.76 with CUDC-101 + Crizotinib (first compound 0.01 µM); 0.845 with CUDC-101 + Crizotinib (first compound 0.03162 µM); 0.387 in the test with CUDC-101 + Crizotinib (first compound 0.1 µM); 0.621 with CUDC-101 + Crizotinib (first compound 0.3162 µM); 0.269 with CUDC-101 + Crizotinib (first compound 1 µM); 0.882 in the test with NVP-TAE684 + Foretinib (first compound 0.2 µM). Moreover, the relative viability in the test with NVP-TAE684 + Foretinib (first compound 0.6325 µM) stood at 0.804; in the test with NVP-TAE684 + Foretinib (first compound 2 µM) it was 0.631; with NVP-TAE684 + Pemetrexed (first compound 0.2 µM), 0.531; with NVP-TAE684 + Pemetrexed (first compound 0.6325 µM), 0.519; with NVP-TAE684 + Pemetrexed (first compound 2 µM), 0.449; with NVP-TAE684 + Decitabine (first compound 0.2 µM), 0.582. The relative viability turned out to be 0.547 with NVP-TAE684 + Decitabine (first compound 0.6325 µM); 0.506 in the test with NVP-TAE684 + Decitabine (first compound 2 µM); 0.26 with Vandetanib + Lapatinib (first compound 0.02 µM); 0.231 with Vandetanib + Lapatinib (first compound 0.06325 µM); 0.244 with Vandetanib + Lapatinib (first compound 0.2 µM); 0.213 in the test with Vandetanib + Lapatinib (first compound 0.6325 µM). Besides, the relative viability with Vandetanib + Lapatinib (first compound 2 µM) was 0.202.

With HCC-78, the relative viability amounted to 0.365 with CUDC-101 + Crizotinib (first compound 0.01 µM); 0.298 in the test with CUDC-101 + Crizotinib (first compound 0.03162 µM); 0.354 with CUDC-101 + Crizotinib (first compound 0.1 µM); 0.301 in the test with CUDC-101 + Crizotinib (first compound 0.3162 µM); 0.103 with CUDC-101 + Crizotinib (first compound 1 µM); 0.539 with NVP-TAE684 + Foretinib (first compound 0.2 µM). Besides, the relative viability is 0.539 in the test with NVP-TAE684 + Foretinib (first compound 0.6325 µM); 0.382 in the test with NVP-TAE684 + Foretinib (first compound 2 µM); 0.886 with NVP-TAE684 + Pemetrexed (first compound 0.2 µM); 0.912 with NVP-TAE684 + Pemetrexed (first compound 0.6325 µM); 0.93 with NVP-TAE684 + Pemetrexed (first compound 2 µM); 0.636 with NVP-TAE684 + Decitabine (first compound 0.2 µM). Besides, the relative viability came out at 0.634 in the test with NVP-TAE684 + Decitabine (first compound 0.6325 µM); 0.49 with NVP-TAE684 + Decitabine (first compound 2 µM); 1.03 in the test with Vandetanib + Lapatinib (first compound 0.02 µM); 0.739 with Vandetanib + Lapatinib (first compound 0.06325 µM); 0.915 with Vandetanib + Lapatinib (first compound 0.2 µM); 0.913 with Vandetanib + Lapatinib (first compound 0.6325 µM). Also, the relative viability with Vandetanib + Lapatinib (first compound 2 µM) was 0.738.

Take EMC-BAC-2: the relative viability in the test with CUDC-101 + Crizotinib (first compound 0.01 µM) was 0.726; in the test with CUDC-101 + Crizotinib (first compound 0.03162 µM), 0.76; in the test with CUDC-101 + Crizotinib (first compound 0.1 µM), 0.732; in the test with CUDC-101 + Crizotinib (first compound 0.3162 µM), 0.571; in the test with CUDC-101 + Crizotinib (first compound 1 µM), 0.388; with NVP-TAE684 + Foretinib (first compound 0.2 µM) it was 0.958. The relative viability with NVP-TAE684 + Foretinib (first compound 0.6325 µM) came out at 0.977; with NVP-TAE684 + Foretinib (first compound 2 µM), 0.467; in the test with NVP-TAE684 + Pemetrexed (first compound 0.2 µM) it was 0.429; with NVP-TAE684 + Pemetrexed (first compound 0.6325 µM), 0.405; in the test with NVP-TAE684 + Pemetrexed (first compound 2 µM), 0.433; with NVP-TAE684 + Decitabine (first compound 0.2 µM), 0.978. The relative viability with NVP-TAE684 + Decitabine (first compound 0.6325 µM) was found to be 0.946; in the test with NVP-TAE684 + Decitabine (first compound 2 µM) it was 0.708; with Vandetanib + Lapatinib (first compound 0.02 µM), 0.906; in the test with Vandetanib + Lapatinib (first compound 0.06325 µM) it was 0.87; with Vandetanib + Lapatinib (first compound 0.2 µM) it was 0.435; in the test with Vandetanib + Lapatinib (first compound 0.6325 µM) it was 0.866. The relative viability in the test with Vandetanib + Lapatinib (first compound 2 µM) came to 0.95.

For NCI-H2170, the relative viability with CUDC-101 + Crizotinib (first compound 0.01 µM) was 1.14; with CUDC-101 + Crizotinib (first compound 0.03162 µM), 1.23; in the test with CUDC-101 + Crizotinib (first compound 0.1 µM) it was 1.17; with CUDC-101 + Crizotinib (first compound 0.3162 µM), 1.2; in the test with CUDC-101 + Crizotinib (first compound 1 µM) it was 0.732; with NVP-TAE684 + Foretinib (first compound 0.2 µM), 1.1. For the same cell line, the relative viability in the test with NVP-TAE684 + Foretinib (first compound 0.6325 µM) came out at 0.997; with NVP-TAE684 + Foretinib (first compound 2 µM), 0.999; with NVP-TAE684 + Pemetrexed (first compound 0.2 µM), 0.274; with NVP-TAE684 + Pemetrexed (first compound 0.6325 µM) it was 0.27; with NVP-TAE684 + Pemetrexed (first compound 2 µM) it was 0.228; with NVP-TAE684 + Decitabine (first compound 0.2 µM), 0.472. Moreover, the relative viability was found to be 0.477 with NVP-TAE684 + Decitabine (first compound 0.6325 µM); 0.418 in the test with NVP-TAE684 + Decitabine (first compound 2 µM); 0.264 with Vandetanib + Lapatinib (first compound 0.02 µM); 0.253 with Vandetanib + Lapatinib (first compound 0.06325 µM); 0.225 in the test with Vandetanib + Lapatinib (first compound 0.2 µM); 0.271 with Vandetanib + Lapatinib (first compound 0.6325 µM). The relative viability in the test with Vandetanib + Lapatinib (first compound 2 µM) was determined as 0.269.
